1 compound from ChEMBL document CHEMBL2163286, “1,2,3,4-tetrahydroquinoline-based selective human neuronal nitric oxide synthase (nNOS) inhibitors: lead optimization studies resulting in the identification of N-(1-(2-(methylamino)ethyl)-1,2,3,4-tetrahydroquinolin-6-yl)thiophene-2-carboximidamide as a preclinical development candidate” (J Med Chem, 2012) can be followed below.

Bounds are passed on as bounds.

By EC50 is commonly meant the concentration at which the effect is half-maximal.

The assay addresses T1, Adrenergic receptor alpha-2 (Rattus norvegicus, UniProt P22086+P19328+P22909).
T1 sequence (P22086 whole entry): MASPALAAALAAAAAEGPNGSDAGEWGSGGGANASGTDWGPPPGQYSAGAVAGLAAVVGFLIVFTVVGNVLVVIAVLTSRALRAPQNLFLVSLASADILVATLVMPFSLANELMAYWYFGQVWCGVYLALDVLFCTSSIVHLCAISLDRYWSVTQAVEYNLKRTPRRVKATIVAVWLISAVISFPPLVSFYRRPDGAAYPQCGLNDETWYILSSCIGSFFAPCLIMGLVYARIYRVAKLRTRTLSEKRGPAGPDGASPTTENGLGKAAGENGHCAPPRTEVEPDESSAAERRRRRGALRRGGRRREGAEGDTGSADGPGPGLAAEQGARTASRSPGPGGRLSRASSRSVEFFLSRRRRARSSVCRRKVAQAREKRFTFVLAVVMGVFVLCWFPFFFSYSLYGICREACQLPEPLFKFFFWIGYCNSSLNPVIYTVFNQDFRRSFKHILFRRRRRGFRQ
T1 sequence (P19328 whole entry): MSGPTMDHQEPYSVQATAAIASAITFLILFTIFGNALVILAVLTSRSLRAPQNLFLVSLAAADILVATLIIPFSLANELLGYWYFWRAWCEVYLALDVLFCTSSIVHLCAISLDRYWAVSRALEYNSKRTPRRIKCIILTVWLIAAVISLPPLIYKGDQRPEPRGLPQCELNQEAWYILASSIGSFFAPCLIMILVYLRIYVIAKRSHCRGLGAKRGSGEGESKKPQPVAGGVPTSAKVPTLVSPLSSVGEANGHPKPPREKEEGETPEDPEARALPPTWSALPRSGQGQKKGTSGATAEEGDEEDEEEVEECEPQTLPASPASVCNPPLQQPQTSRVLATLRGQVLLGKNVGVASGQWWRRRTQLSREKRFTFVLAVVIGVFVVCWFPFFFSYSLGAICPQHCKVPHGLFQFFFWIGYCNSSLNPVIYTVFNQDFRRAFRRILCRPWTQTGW
T1 sequence (P22909 whole entry): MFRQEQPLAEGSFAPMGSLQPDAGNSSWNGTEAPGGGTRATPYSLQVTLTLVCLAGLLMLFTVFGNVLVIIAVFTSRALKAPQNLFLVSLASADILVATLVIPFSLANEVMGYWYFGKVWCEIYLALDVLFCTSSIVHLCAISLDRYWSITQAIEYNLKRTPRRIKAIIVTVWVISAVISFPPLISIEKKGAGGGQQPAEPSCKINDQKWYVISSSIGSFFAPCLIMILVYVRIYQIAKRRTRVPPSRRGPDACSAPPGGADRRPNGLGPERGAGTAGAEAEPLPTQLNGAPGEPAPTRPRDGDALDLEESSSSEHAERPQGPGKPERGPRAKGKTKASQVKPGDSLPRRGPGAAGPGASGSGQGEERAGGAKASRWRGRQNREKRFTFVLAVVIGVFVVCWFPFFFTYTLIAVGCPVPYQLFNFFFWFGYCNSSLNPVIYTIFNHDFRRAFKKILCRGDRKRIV
The assay can be described thus: Inhibition of rat Alpha-2 adrenergic receptor by cell based functional assay.

Consider `CNCCN1CCCc2cc(NC(=N)c3cccs3)ccc21`, for which the EC50 was > 40 µM.
